Assay results reported in patent US9782379B2, “Use of protectin DX for the stimulation of muscular IL-6 secretion” (Universite Laval, priority 2013, dated 2017).

Tests used:
C2C12 myotubes = experiment: IL-6 expression and release and AMPK phosphorylation in cultured C2C12 myotubes; assay type: cell-based
Method: C2C12 myoblasts were maintained in DMEM containing 10% FBS. Differentiation to myotubes was initiated by addition of DMEM containing 2% horse serum. The experiment was conducted 5 days after the addition of the differentiation media. Immediately prior to the commencement of experiments fresh media was added to the cells. Then vehicle or PDX (10, 100, and 1000 nM) was added to the appropriate wells. 30 and 120 minutes after the addition of PDX media was collected and frozen for IL-6 quantification and cells were washed in ice cold PBS. For extraction of mRNA cells were then lysed and scraped in 300 μl of RLT buffer (QIAGEN). For examination of AMPK activity cells were lysed and scraped in 200 μl of ice cold lysis buffer containing 50 mM HEPES pH7.5, 150 mM NaCl, 1 mM EGTA, 20 mM b-glycerophosphate, 1% NP40, 10 mM NaF, 2 mM Na3VO4, 1× protease inhibitor cocktail (Sigma).
Snap frozen gastrocnemius muscle and liver from mice were pulverized in liquid nitrogen then lysed overnight at 4° C. in the lysis buffer described for the C2C12 myotube experiments. Immunoblotting of myotube, macrophage, liver and muscle lysates was then performed as previously described^5. Briefly, 50 ug of protein was loaded onto a 7.5% acrylamide gel, subjected to SDS-PAGE then transferred onto nitrocellulose membranes. Membranes were then blocked and probed with the appropriate antibodies. Antibodies for p-Akt ser473, p-JNK thr183/tyr185, JNK, p-AMPK thr172, AMPK, p-STAT-3 ser727 and STAT-3 were obtained from Cell Signaling Technology (MA, USA). Antibodies for total Akt and iNOS were from Santa Cruz Biotechnology (CA, USA) and BD Transduction Laboratories™ (Canada) respectively.
RNA was extracted from C2C12 myotubes using an RNeasy® mini kit from QIAGEN. RNA from homogenized liver tissue was extracted using an RNeasy® fibrous tissue mini kit from QIAGEN. RNA was then reverse transcribed to cDNA using the high-capacity cDNA reverse transcription kit from applied biosystems. Real-time PCR for Ppargc1, Pck1, G6Pc, and GAPDH was then performed using Taqman assay on demand probes and primers from Applied Biosystems in a CFX96 real-time system from BIO-RAD. The relative expression of genes of interest was then determined by normalization to the housekeeping gene GAPDH using the comparative CT method for relative gene expression^30.
Chemokines and cytokines were quantified in macrophage media, or mouse plasma using the MILLIPLEX™ MAP mouse cytokine/chemokine kit (Millipore Corporation, MA, USA). Nitrite accumulation in media was determined by Greiss assay as previously described^25. Plasma insulin levels were assessed by RIA (Linco, MI, USA). FFA were measured using an enzymatic colorimetric assay (Wako Chemicals, VA, USA). Skeletal muscle and liver IL-6 were quantified using the mouse IL-6 ELISA kit from R&D systems. Total plasma adiponectin was determined using the ELISA from ALPCO.

db/db mice = experiment: 5 days PDX treatment of db/db mice with hyperinsulinemic-isoglycemic clamp; assay type: in vivo
Method: In order to determine whether these beneficial effects of PDX could be sustained or improved with a prolonged treatment regimen, we administered 2 μg of PDX or vehicle (i.v.) twice daily to 17 week old db/db for 5 days leading up to the clamp experiment (FIGS. 10 and 11).
The hyperinsulinemic-isoglycemic clamp (FIG. 11) is the gold-standard for evaluating insulin stimulated glucose metabolism in viva Animals were fasted around 8 am (t=−300 min), and received a first injection of either PDX (2 μg/mice) or the vehicle (10% Ethanol) at t=−240 min. A second injection was given at time −90 min, after which the clamp procedure per se was started. This procedure consisted of a 90-min tracer equilibration period (t=−90 to 0 min) followed by a 120 min hyperinsulinemic isoglycemic clamp (t=0 to 120 min). A 50 μl blood sample was obtained at t=−90 min to determine radioactive-free plasma activity. A 0.5 μCi bolus of [3-3H]-glucose was given at t=−90 min followed by a 0.033 μCi/min infusion for 90 min (t=−90 to 0 min). At t=−30, -20, -10 and 0 min, blood samples were taken for the assessment of basal glucose and glucose specific activity. The insulin infusion began at t=0 min with a primed-continuous infusion of human insulin (16 mU/kg bolus followed by a 4 mU/kg/min infusion), to achieve plasma insulin concentrations 2.5-fold over basal concentrations. At t=0 min, the [3-3H]-glucose infusion was increased to 0.066 μCi/min for the remainder of the experiment to minimize changes in specific activity from the equilibration period. Isoglycemia was maintained by measuring blood glucose every 10 min starting at t=0 min and infusing 20% glucose as necessary to preserved the blood glucose at basal levels. Blood samples were taken every 10 min from t=90 to 120 min for the determination of glucose specific activity.

IL-6 null (KO) mice = experiment: second paired saline/lipid infusion 2.5 mU/kg/min hyperinsulinemic-euglycemic clamp, IL-6 null mice; assay type: in vivo
Method: For the second paired lipid infusion HIE clamp study, 10 week old male B6.129S2-ll6^tmkopf/J (IL-6 KO) and control C57BL/6J (WT) mice from Jackson Labs were used. Mice from each genetic background were randomly assigned to saline-vehicle, saline-PDX, lipid-vehicle and lipid-PDX groups. The lipid-infusion clamp study was performed as described above, except the clamp was performed with a 2.5 mU·kg^−1·min^−1 insulin infusion as per^29.
To confirm the involvement of IL-6 in the beneficial effects of PDX we performed a second round of paired lipid infusion hyperinsulinemic-euglycemic clamp studies in IL-6 null (KO) mice alongside wild-type (WT) C57BL/6J control mice. Saline-infused mice treated with PDX were added to the study to ascertain whether PDX also improves glucose metabolism in insulin-sensitive mice. To ensure detection of potential differences between insulin-sensitive saline-infused animals we performed 2.5mU/kg/min rather than 4 mU/kg/min clamps.

[1] = highest dose, within 2 h, P<0.01
[2] = saline and lipid-infused KO mice

CC/C=C\C[C@H](O)/C=C/C=C\C=C\[C@@H](O)C/C=C\C/C=C\CCC(=O)O [PDX, 10S,17S-dihydroxy-docosa-4Z,7Z,11E,13Z,15E,19Z-hexaeonic acid]
IL-6 release from muscle cells (C2C12 myotubes; 100 nM of each lipid mediator vs vehicle): prompted IL-6 release
AMPK phosphorylation (C2C12 myotubes; 30 minutes): promotes AMPK phosphorylation
IL-6 release in the media (C2C12 myotubes; 30 minutes): no IL-6 release can be detected
phosphorylation of AMPK (C2C12 myotubes; 2 h, P<0.05): detected
increase in IL-6 mRNA expression (C2C12 myotubes; [1]): more than 2 fold
increase in IL-6 secretion (accumulation in media) (C2C12 myotubes; [1]): more than 2 fold
total body weight (db/db mice; 2 μg PDX i.v. twice daily for 5 days vs vehicle): no significant changes
IL6 levels in eWAT (db/db mice; 5 day PDX treatment): no such increase
fasting blood glucose (db/db mice; 5 day PDX treatment): not affected
plasma IL-6 (db/db mice; 5 day PDX treatment): trend for increased
plasmatic insulin levels (db/db mice; 5 day PDX treatment): not affected
cytokines content in the eWAT (db/db mice; PDX-treated vs vehicle-treated): no difference
insulin sensitivity (glucose infusion rate, GIR) (db/db mice; after the 5 days PDX treatment): clear improvement
weight of tissues (iWAT, eWAT, liver, gastrocnemius, pancreas) (db/db mice; end of the 5 days treatment): No significant changes
skeletal muscle IL-6 (db/db mice; gastrocnemius, P<0.05): elevated
activation of hepatic STAT-3 (IL-6 null (KO) mice; KO mice, saline and lipid-infused): completely absent
lipid-induced elevations in circulating TNFa (IL-6 null (KO) mice; lipid-infused IL-6 KO mice, P<0.001): potently suppress
effect on hepatic insulin action (IL-6 null (KO) mice; lipid-infused KO mice): only partially lost
effect on peripheral insulin action (IL-6 null (KO) mice; lipid-infused KO mice): completely absent
effects on suppression of Ppargc1, Pck1 and G6Pc (IL-6 null (KO) mice; lipid-infused KO mice): entirely absent
stimulatory effect on AMPK phosphorylation (muscle) (IL-6 null (KO) mice; lipid-infused KO mice): fully maintained
IL-6 in skeletal muscle (IL-6 null (KO) mice; [2]): failed to raise
effect on pre-clamp glycemia (IL-6 null (KO) mice; [2]): completely absent
enhancement of GIR (IL-6 null (KO) mice; [2]): this was not the case
effect on hepatic insulin action (IL-6 null (KO) mice; saline-infused KO mice): completely absent
effect on transcriptional repression of PEPCK (IL-6 null (KO) mice; saline-infused KO mice): completely absent
improved suppression of G6Pc (IL-6 null (KO) mice; saline-infused KO mice): this was not the case
